Test results reported in ChEMBL document CHEMBL6096719, “Kidney Targeting Smart Antibiotic Discovery: Multimechanism Pleuromutilins for Pyelonephritis Therapy” (J Med Chem, 2025).

What was measured:
Chlamydia pneumoniae = assay: Anti-mycoplasma activity against Chlamydophila pneumoniae AR39 ATCC53592 assessed as inhibition of bacterial growth incubated for 3 to 5 days by broth microdilution method; format: functional; settings: time 3-5 day
Metamycoplasma hominis = assay: Anti-mycoplasma activity against Mycoplasma hominis PG-21 ATCC23114 assessed as inhibition of bacterial growth incubated for 1 to 2 days by broth microdilution method; format: functional; settings: time 1-2 day
[1] = molecular target: Solute carrier family 22 member 1 (Homo sapiens, UniProt O15245); assay: Substrate activity at human OCT1 transfected in HEK293 cells assessed as increase in intracellular drug content at 100 uM measured after 5 mins; format: ADME, cell-based; settings: hek293, 5 min
Solute carrier family 22 member 1, sequence (O15245 whole entry): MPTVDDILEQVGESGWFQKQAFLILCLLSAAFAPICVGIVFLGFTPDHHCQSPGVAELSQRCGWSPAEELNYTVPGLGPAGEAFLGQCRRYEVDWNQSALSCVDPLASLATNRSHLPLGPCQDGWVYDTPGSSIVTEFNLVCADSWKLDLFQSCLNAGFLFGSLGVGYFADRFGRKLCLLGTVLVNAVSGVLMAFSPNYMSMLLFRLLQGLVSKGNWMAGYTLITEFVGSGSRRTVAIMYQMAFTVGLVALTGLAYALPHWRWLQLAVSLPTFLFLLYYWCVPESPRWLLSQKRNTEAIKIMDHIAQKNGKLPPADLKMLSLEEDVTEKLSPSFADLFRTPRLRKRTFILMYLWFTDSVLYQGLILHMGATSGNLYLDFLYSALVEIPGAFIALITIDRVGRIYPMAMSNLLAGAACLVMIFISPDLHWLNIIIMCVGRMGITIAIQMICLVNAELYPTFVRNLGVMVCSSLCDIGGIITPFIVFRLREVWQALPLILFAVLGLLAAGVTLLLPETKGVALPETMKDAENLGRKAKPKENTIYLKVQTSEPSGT

[2] = Observed AUC (0 to infinity) in Sprague-Dawley rat at 5 mg/kg, iv; format: ADME, organism-based; settings: in vivo
Staphylococcus aureus = assay: Antibacterial activity against methicillin-resistant Staphylococcus aureus ATCC33591 infected in systemic intraperitoneal infection Kunming mouse model assessed as increase in animal's survival rate at 5 mg/kg, ip treated at 1 hr post-infection and measured on day 7; format: functional; settings: ATCC33591, 168 h, time 7 day

C=C[C@]1(C)C[C@@H](OC(=O)CSc2nc3cc[n+](Cc4ccc(C)cc4)cc3[nH]2)[C@]2(C)[C@H](C)CC[C@]3(CCC(=O)[C@H]32)[C@@H](C)[C@@H]1O.[Br-]
MIC (Chlamydia pneumoniae): < 0.04 µg/mL
MIC (Metamycoplasma hominis): < 0.04 µg/mL
Activity [1]: Active
AUC(0-inf) [2]: 16500 ng·h/mL
survival at 5 mg/kg (Staphylococcus aureus): 80%
